Experiments:
[1] = Degree of permeation of hydrogen peroxide through transwell membrane according to anion irradiation; settings: 10 minutes, room temperature, composition with 15% by weight hydrogen peroxide and 25 nM potassium triphosphate
Experimental: Two identical transwell membranes were prepared by the above-described process, and one of them was irradiated with anions at room temperature for 10 minutes using an anion irradiator (trade name: Bluen: BN-108), and the other one was allowed to stand at room temperature for 10 minutes without irradiating anions.
Thereafter, the concentration of hydrogen peroxide escaped from each transwell membrane to the outside was titrated to calculate the ratio of hydrogen peroxide that passed through the membrane.

[2] = cited from earlier work

ratio of hydrogen peroxide escaped from the transwell membrane to the outside ([1]; anion-irradiated) [% by weight]	ratio of hydrogen peroxide escaped from the transwell membrane to the outside ([1]; non-irradiated) [% by weight]	SMILES	pKa [2]
72	51	OO [hydrogen peroxide]	–
–	–	O=P([O-])([O-])OP(=O)([O-])OP(=O)([O-])[O-].[K+].[K+].[K+].[K+].[K+] [potassium triphosphate]	12.38

Source: patent US10172769B2, “Method for whitening teeth” (DENT-WHITE CO., LTD., priority 2015, dated 2019)
